From patent US6350764B2, “Heteroaryl aminoguanidines and alkoxyguanidines and their use as protease inhibitors” (3-Dimensional Pharmaceuticals, Inc., priority 1997, dated 2002)
pKi: −log10 of the molar value. Counter-ions that a name gives are not always drawn.

Key:
Assay type in all cases: biochemical
[1] = biological target: T1, human α-thrombin (Homo sapiens, UniProt P00734); assay: In vitro inhibition of purified enzymes: thrombin, hydrolysis of N-succinyl-Ala-Ala-Pro-Arg-p-nitroanilide; settings: 37° C., pH 7.5
T1 construct: Purified human a-thrombin was diluted into assay buffer; purchased Enzyme Research Laboratories (South Bend)
Description: (§1) Reagents: All buffer salts were obtained from Sigma Chemical Company (St. Louis, Mo.), and were of the highest purity available. The enzyme substrates, N-benzoyl-Phe-Val-Arg-p-nitroaniide (Sigma B7632) N-benzoyl-Ile-Glu-Gly-Arg-p-nitroanilide hydrochloride (Sigma B2291), N-p-Tosyl-Gly-Pro-Lys-p-nitroanilide (Sigma T6140), N-succinyl-Ala-Ala-Pro-Phe-p-nitroanilide (Sigma S7388) and N-CBZ-Val-Gly-Arg-p-nitroanilide (Sigma C7271) were obtained from Sigma.
(§2) Human α-thrombin, human factor Xa and human plasmin were obtained from Enzyme Research Laboratories (South Bend, Id.). Bovine α-chymotrypsin (Sigma C4129), bovine trypsin (Sigma T8642) and human kidney cell urokinase (Sigma U5004) were obtained from Sigma. Human leukocyte elastase was obtained from Elastin Products (Pacific, Mo.).
Ki Determinations: All assays are based on the ability of the test compound to inhibit the enzyme catalyzed hydrolysis of a peptide p-nitroanilide substrate. […] The final concentrations for each of the substrates is listed below. In general, substrate concentrations are lower than the experimentally determined value for Km. Test compounds are prepared as a 1.0 mg/ml solution in DMSO. Dilutions are prepared in DMSO yielding 8 final concentrations encompassing a 200 fold concentration range. Enzyme solutions are prepared at the concentrations listed below in assay buffer.
(§3) Reactions were initiated by the addition of a […] aliquot of enzyme and the absorbance increase at 405 nm is recorded for 15 minutes. Data corresponding to less than 10% of the total substrate hydrolysis were used in the calculations. The ratio of the velocity (rate of change in absorbance as a function of time) for a sample containing no test compound is divided by the velocity of a sample containing test compound, and is plotted as a function of test compound concentration. The data are fit to a linear regression, and the value of the slope of the line calculated. The inverse of the slope is the experimentally determined Ki value.
Thrombin: Thrombin activity was assessed as the ability to hydrolyze the substrate N-succinyl-Ala-Ala-Pro-Arg-p-nitroanilide. […] Final reagent concentrations were: [thrombin]=0.5 nM, [substrate N-succinyl-Ala-Ala-Pro-Arg-p-nitroanilide]=32 mM.

[2] = biological target: T2, human factor Xa (Homo sapiens, UniProt P00742); assay: In vitro inhibition of purified enzymes: Factor X [FXa], hydrolysis of N-benzoyl-Ile-Glu-Gly-Arg-p-nitroanilide; settings: 37° C., pH 7.5
T2 construct: purchased Enzyme Research Laboratories (South Bend)
T2 sequence (P00742 235-488 limits assumed): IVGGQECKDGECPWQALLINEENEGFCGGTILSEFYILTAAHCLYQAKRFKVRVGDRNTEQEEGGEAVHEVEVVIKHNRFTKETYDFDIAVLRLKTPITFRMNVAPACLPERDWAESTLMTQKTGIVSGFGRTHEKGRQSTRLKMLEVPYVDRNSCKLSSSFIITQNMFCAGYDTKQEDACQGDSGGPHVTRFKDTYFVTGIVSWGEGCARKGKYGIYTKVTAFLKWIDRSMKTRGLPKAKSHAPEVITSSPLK
T2 sequence (P00742 41-179 partner limits assumed): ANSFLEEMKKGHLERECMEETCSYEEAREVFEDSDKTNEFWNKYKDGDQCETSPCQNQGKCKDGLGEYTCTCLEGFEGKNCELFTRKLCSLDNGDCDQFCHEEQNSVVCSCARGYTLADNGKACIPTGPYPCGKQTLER
Description: as §1, with “Sigma. N-succinyl-Ala-Ala-Pro-Arg-p-nitroanilide (BACHEM L-1720) and N-succinyl-Ala-Ala-Pro-Val-p-nitroanilide (BACHEM L-1770) were obtained from BACHEM (King of Prussia, Pa.).” for “Sigma.”
as §2
(§4) Ki Determinations: All assays are based on the ability of the test compound to inhibit the enzyme catalyzed hydrolysis of a peptide p-nitroanilide substrate. In atypical Ki determination, substrate is prepared in DMSO, and diluted into an assay buffer consisting of 50 mM HEPES, 200 mM NaCl, pH 7.5. The final concentrations for each of the substrates is listed below. In general, substrate concentrations are lower than the experimentally determined value for Km. Test compounds are prepared as a 1.0 mg/ml solution in DMSO. Dilutions are prepared in DMSO yielding 8 final concentrations encompassing a 200 fold concentration range. Enzyme solutions are prepared at the concentrations listed below in assay buffer.
as §3, with “In a typical Ki determination, into each well of a 96 well plate is pipetted […] of substrate solution, […] of test compound solution, and the plate allowed to thermally equilibrate at 37° C. in a Molecular Devices plate reader for>15 minutes. Reactions” for “Reactions”
Factor X [FXa]: FXa activity was assessed as the ability to hydrolyze the substrate N-benzoyl-Ile-Glu-Gly-Arg-p-nitroanilide hydrochloride. […] Final DMSO concentration was 4.3%. Purified activated human Factor X was diluted into assay buffer to a concentration of 300 nM. Final reagent concentrations were: [FXa]=10 nM, [N-benzoyl-Ile-Glu-Gly-Arg-p-nitroanilide hydrochloride]=51 mM.

[3] = biological target: T3, human leukocyte elastase (Homo sapiens, UniProt P08246); assay: In vitro inhibition of purified enzymes: elastase, hydrolysis of N-succinyl-Ala-Ala-Pro-Val-p-nitroanilide
T3 construct: purchased Elastin Products (Pacific, Mo.)
T3 sequence (P08246 30-247 limits assumed): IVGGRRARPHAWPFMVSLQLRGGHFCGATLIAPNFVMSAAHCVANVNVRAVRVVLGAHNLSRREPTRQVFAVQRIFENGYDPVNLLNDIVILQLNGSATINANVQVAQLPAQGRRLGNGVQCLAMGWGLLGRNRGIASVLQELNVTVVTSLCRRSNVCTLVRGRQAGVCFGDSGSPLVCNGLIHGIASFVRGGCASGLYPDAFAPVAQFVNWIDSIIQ
Description: as §1, with “Sigma. N-succinyl-Ala-Ala-Pro-Arg-p-nitroanilide (BACHEM L-1720) and N-succinyl-Ala-Ala-Pro-Val-p-nitroanilide (BACHEM L-1770) were obtained from BACHEM (King of Prussia, Pa.).” for “Sigma.”
as §2, §4
as §3, with “In a typical Ki determination, into each well of a 96 well plate is pipetted […] of substrate solution, […] of test compound solution, and the plate allowed to thermally equilibrate at 37° C. in a Molecular Devices plate reader for>15 minutes. Reactions” for “Reactions”
Elastase: Elastase activity was assessed as the ability to hydrolyze N-succinyl-Ala-Ala-Pro-Val-p-nitroanilide. Substrate solutions were prepared at a concentration of 19 mM (19 mM<<Km=89 mM) in assay buffer. Final DMSO concentration was 4.3%. Purified human leukocyte elastase was diluted into assay buffer to a concentration of 750 nM. Final reagent concentrations were: [Elastase]=25 nM, [N-succinyl-Ala-Ala-Pro-Val-p-nitroanilide]=19 mM.

[4] = biological target: T4, bovine trypsin (Bos taurus, UniProt P00760); assay: In vitro inhibition of purified enzymes: trypsin, hydrolysis of N-benzoyl-Phe-Val-Arg-p-nitroanilide; settings: for pKi: 37° C., pH 7.5
T4 construct: Purified bovine trypsin was diluted into assay buffer; purchased Sigma T8642
T4 sequence (P00760 24-246): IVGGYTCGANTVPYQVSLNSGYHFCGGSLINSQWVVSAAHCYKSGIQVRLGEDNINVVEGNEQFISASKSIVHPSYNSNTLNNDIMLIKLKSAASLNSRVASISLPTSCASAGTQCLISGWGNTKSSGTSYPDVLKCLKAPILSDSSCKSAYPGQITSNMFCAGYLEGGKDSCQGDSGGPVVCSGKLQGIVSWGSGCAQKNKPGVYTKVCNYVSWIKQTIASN
Description: as §1, with “Sigma. N-succinyl-Ala-Ala-Pro-Arg-p-nitroanilide (BACHEM L-1720) and N-succinyl-Ala-Ala-Pro-Val-p-nitroanilide (BACHEM L-1770) were obtained from BACHEM (King of Prussia, Pa.).” for “Sigma.”
as §2, §4
as §3, with “In a typical Ki determination, into each well of a 96 well plate is pipetted […] of substrate solution, […] of test compound solution, and the plate allowed to thermally equilibrate at 37° C. in a Molecular Devices plate reader for>15 minutes. Reactions” for “Reactions”
Trypsin: Trypsin activity was assessed as the ability to hydrolyze N-benzoyl-Phe-Val-Arg-p-nitroanilide. […] Final DMSO concentration was 4.3%. Purified bovine trypsin was diluted into assay buffer to a concentration of 120 nM. Final reagent concentrations were: [Trypsin]=4 nM, [N-benzoyl-Phe-Val-Arg-p-nitroanilide]=13 mM.

[5] = biological target: T5, bovine α-chymotrypsin (Bos taurus, UniProt P00766); assay: In vitro inhibition of purified enzymes: chymotrypsin, hydrolysis of N-succinyl-Ala-Ala-Pro-Phe-p-nitroanilide; settings: read-out: % Inhibition Chymo.
T5 construct: Bovine α-chymotrypsin (Sigma C4129); purchased Sigma C4129
Description: as §1, with “Sigma. N-succinyl-Ala-Ala-Pro-Arg-p-nitroanilide (BACHEM L-1720) and N-succinyl-Ala-Ala-Pro-Val-p-nitroanilide (BACHEM L-1770) were obtained from BACHEM (King of Prussia, Pa.).” for “Sigma.”
as §2, §4
as §3, with “In a typical Ki determination, into each well of a 96 well plate is pipetted […] of substrate solution, […] of test compound solution, and the plate allowed to thermally equilibrate at 37° C. in a Molecular Devices plate reader for>15 minutes. Reactions” for “Reactions”
Chymotrypsin: Chymotrypsin activity was assessed as the ability to hydrolyze N-succinyl-Ala-Ala-Pro-Phe-p-nitroanilide. […] Final DMSO concentration was 4.3%. Purified bovine chymotrypsin was diluted into assay buffer to a concentration of 81 nM. Final reagent concentrations were: [Chymotrypsin]=2.7 nM, [N-succinyl-Ala-Ala-Pro-Phe-p-nitroanilide]=14 mM.

[6] = biological target: T6, human plasmin (Homo sapiens, UniProt P00747); assay: In vitro inhibition of purified enzymes: plasmin, hydrolysis of N-p-Tosyl-Gly-Pro-Lys-p-nitroanilide
T6 construct: Purified human plasmin was diluted into assay buffer; purchased Enzyme Research Laboratories (South Bend)
T6 sequence (P00747 581-810 limits assumed): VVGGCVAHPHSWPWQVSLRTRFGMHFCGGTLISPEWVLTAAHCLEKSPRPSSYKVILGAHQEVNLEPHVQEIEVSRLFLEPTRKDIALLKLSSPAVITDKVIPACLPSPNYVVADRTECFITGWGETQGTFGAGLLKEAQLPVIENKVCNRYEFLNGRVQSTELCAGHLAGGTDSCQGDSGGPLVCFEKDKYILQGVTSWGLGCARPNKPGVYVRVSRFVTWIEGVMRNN
T6 sequence (P00747 97-580 partner limits assumed): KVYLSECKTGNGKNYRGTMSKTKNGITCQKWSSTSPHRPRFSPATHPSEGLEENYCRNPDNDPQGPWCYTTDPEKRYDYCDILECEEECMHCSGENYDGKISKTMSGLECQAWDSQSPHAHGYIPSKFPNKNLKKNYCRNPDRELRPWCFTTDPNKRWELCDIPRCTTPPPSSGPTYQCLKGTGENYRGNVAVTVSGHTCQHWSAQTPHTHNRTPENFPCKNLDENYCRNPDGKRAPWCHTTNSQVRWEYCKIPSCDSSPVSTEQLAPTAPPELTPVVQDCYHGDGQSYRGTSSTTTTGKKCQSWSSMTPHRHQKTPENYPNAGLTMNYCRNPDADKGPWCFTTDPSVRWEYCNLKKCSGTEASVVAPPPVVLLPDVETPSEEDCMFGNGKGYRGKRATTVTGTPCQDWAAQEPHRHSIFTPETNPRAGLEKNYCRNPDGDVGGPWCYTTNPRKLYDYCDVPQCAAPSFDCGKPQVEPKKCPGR
Description: as §1, with “Sigma. N-succinyl-Ala-Ala-Pro-Arg-p-nitroanilide (BACHEM L-1720) and N-succinyl-Ala-Ala-Pro-Val-p-nitroanilide (BACHEM L-1770) were obtained from BACHEM (King of Prussia, Pa.).” for “Sigma.”
as §2, §4
as §3, with “In a typical Ki determination, into each well of a 96 well plate is pipetted […] of substrate solution, […] of test compound solution, and the plate allowed to thermally equilibrate at 37° C. in a Molecular Devices plate reader for>15 minutes. Reactions” for “Reactions”
Plasmin: Plasmin activity was assessed as the ability to hydrolyze the N-p-Tosyl-Gly-Pro-Lys-p-nitroanilide. Substrate solutions were prepared at a concentration of 37 mM (37 mM<<Km=243 mM) in assay buffer. Final DMSO concentration was 4.3%. Purified human plasmin was diluted into assay buffer to a concentration of 240 nM. Final reagent concentrations were: [Plasmin]=8 nM, [N-p-Tosyl-Gly-Pro-Lys-p-nitroanilide]=37 mM.

pKi [1]	pKi [2]	inhibition at 19 µM ([3]; at 19,000 nM) [%]	pKi [4]	inhibition at 18 µM ([3]; at 18,000 nM) [%]	inhibition at 23.5 µM ([5]; at 23,500 nM) [%]	inhibition at 23.5 µM ([3]; at 23,500 nM) [%]	inhibition at 23.5 µM ([6]; at 23,500 nM) [%]	inhibition at 23.5 µM ([4]; at 23,500 nM) [%]	inhibition at 20 µM ([5]; at 20,000 nM) [%]	inhibition at 20 µM ([3]; at 20,000 nM) [%]	inhibition at 20 µM ([6]; at 20,000 nM) [%]	inhibition at 20 µM ([4]; at 20,000 nM) [%]	Compound
8.70	5.66	0	5.40	–	–	–	–	–	–	–	–	–	Cc1ccc(NS(=O)(=O)Cc2ccc(Cl)cc2)c(=O)n1CC(=O)NCCONC(=N)N [Example 16, 3-(4-Chlorobenzylsulfonyl)amino-6-methyl-1-[(2-guanidinooxyethyl)aminocarbonylmethyl]-2-pyridinone trifluoroacetate]
8.70	5.66	–	5.12	0	–	–	–	–	–	–	–	–	Cc1ccc(NS(=O)(=O)Cc2ccc(Cl)c(Cl)c2)c(=O)n1CC(=O)NCCONC(=N)N [Example 24, 3-(3,4-Dichlorobenzylsulfonyl)amino-6-methyl-1-[(2-guanidinooxyethyl)aminocarbonylmethyl]-2-pyridinone trifluoroacetate]
7.21	5.12	–	–	–	0	0	0	0	–	–	–	–	Cc1ccc(NS(=O)(=O)c2ccccc2Cl)c(=O)n1CC(=O)NCCONC(=N)N [Example 30, 3-(2-Chlorophenylsulfonyl)amino-6-methyl-1-[(2-guanidinooxyethyl)aminocarbonylmethyl]-2-pyridinone trifluoroacetate]
7.29	6.38	–	–	–	–	–	–	–	0	0	0	0	Cc1ccc(NS(=O)(=O)c2ccc(I)cc2)c(=O)n1CC(=O)NCCONC(=N)N [Example 38, 3-(4-Iodophenylsulfonyl)amino-6-methyl-1-[(2-guanidinooxyethyl)aminocarbonylmethyl]-2-pyridinone trifluoroacetate]
6.66	5.68	–	5.64	–	–	–	–	–	–	–	–	–	COc1ccc(Br)cc1S(=O)(=O)Nc1ccc(C)n(CC(=O)NCCONC(=N)N)c1=O [Example 55, 3-(3-Bromo-6-methoxyphenylsulfonyl)amino-6-methyl-1-[(2-guanidinooxyethyl)aminocarbonylmethyl]-2-pyridinoine trifluoroacetate]
